Experimental data: PubChem BioAssay (NCI)
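Tested at 5 concentrations; 48 h exposure; 96-well plates; endpoints linearly interpolated, else capped at highest concentration. Here, GI50 denotes the concentration required for 50% inhibition of growth. TGI marks complete inhibition of growth.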

Experiments:
Test in all cases: NCI tumour cell line growth inhibition, 48 h
[1] = system: HOP-18 NSCLC
[2] = system: LXFL 529 NSCLC
[3] = system: M19-MEL melanoma
[4] = system: NCI/ADR-RES ovarian
[5] = system: MCF7 breast
[6] = system: BT-549 breast
[7] = system: MDA-MB-231 breast
[8] = system: MDA-N
[9] = system: P388/ADR leukemia
[10] = system: SN12K1 renal
[11] = system: P388 leukemia

SMILES | TGI [1] [µM] | TGI [2] [µM] | TGI [3] [µM] | also measured
N/N=C(\Cc1ccccc1)NN=C(N)N | > 100 | > 100 | > 100 | 
CCC1CN2CCc3cc(OC)c(OC)cc3C2CC1CC1c2cc(OC)c(OC)cc2CCN1C(=O)CNC(=O)OC(C)(C)C (stereo unspecified) | 70.7 | 36.2 | 61.2 | 
O=C1c2ccccc2C(=O)C1C(c1ccc([N+](=O)[O-])cc1)C1C(=O)c2ccccc2C1=O | > 100 | > 100 |  | 
CC(=O)NC(CCCN(Cc1ccccc1)C(=O)N(CCCl)N=O)C(=O)NCc1ccccc1 (stereo unspecified) | > 100 | > 100 |  | 
CN(C)c1ccc(N=Nc2c([O-])ccc3ccccc23)cc1.[C-]#[O+].[C-]#[O+].[Ir] | 37.2 | 31.2 | 50.2 | GI50 [4]: 19.3 µM; TGI [4]: 57.7 µM; GI50 [1]: 17.2 µM; GI50 [2]: 17.2 µM; GI50 [5]: 15.8 µM; TGI [5]: 31.8 µM; GI50 [3]: 20.3 µM; GI50 [6]: 19.6 µM; TGI [6]: 56.7 µM; GI50 [7]: 18.8 µM; TGI [7]: 36.2 µM
CCOC(=O)N1C2C=C(C)C(C3C(C)C(=O)N31)N(C(=O)c1ccccc1)O2 (stereo unspecified) | > 100 | > 100 | > 100 | 
FC(F)(F)c1ccc2nc(Nc3ccc(Cl)c(Cl)c3)c(-c3ccccc3)nc2c1 | > 100 | > 100 | > 100 | 
COc1ccc2c(C(=O)O)cc3cc(OC)c(OC)cc3c2c1 | > 100 | > 100 | > 100 | 
CN(C)C(=O)C1CCC(=C2C(=O)OC(C)(C)OC2=O)N1C (stereo unspecified) | > 100 | > 100 | > 100 | 
COC(=O)C(=O)C(C(=O)C=C(C)C)C(=O)C(=O)Nc1cccc(C(C)=O)c1 (stereo unspecified) | > 100 | > 100 | > 100 | 
CC(=O)Oc1ccccc1C(=O)C1c2cccc(O)c2C(=O)c2c(O)cccc21 | 4.87 | 4.03 | 2.94 | 
O=c1[nH]cc(OCC(F)(F)F)c(=O)[nH]1 | > 100 | > 100 | > 100 | 
CN(C)CCNC(=O)c1ccc(Cl)c2c(Nc3ccc(S(N)(=O)=O)cc3)c3ccccc3nc12 | 5.92 | 11.2 | 4.52 | 
FC(F)(F)C12C34C=CC5(CCC6(C=CC1(CC3)O6)C52C(F)(F)F)O4 (stereo unspecified) | > 100 | > 100 | > 100 | 
O=C1C(=O)N(C2C3CC4CC(C3)CC2C4)C(=O)C(=O)C1c1nc2ccccc2o1 (stereo unspecified) | > 100 | > 100 | > 100 | 
CSc1nc(-c2ccccc2)c2c(n1)-c1ccccc1CC2 | > 100 | > 100 | > 100 | 
Clc1ccc(CN2COc3c(cc(Cl)c4cccnc34)C2)cc1 | 16.4 | 2.71 | 6.06 | 
CCSc1nc(COC(=O)NC)c(COC(=O)NC)n1C | > 100 | > 54.8 | > 79.9 | TGI [4]: > 100 µM; TGI [8]: > 100 µM; TGI [9]: > 100 µM; TGI [5]: > 100 µM; TGI [10]: > 100 µM; TGI [6]: > 100 µM; TGI [11]: > 100 µM; TGI [7]: > 100 µM
CCO[C@@H]1C2C=CC(C2)[C@H]1[N+](=O)[O-] (stereo partly specified) | > 100 | > 100 | > 100 | 
CCOC(=O)/C(C#N)=C1\N[C@H](C(=O)OCC)CO1 | > 100 | > 100 | > 100 | 
COC(=O)C(Cc1nc2ccc(Cl)cc2[nH]c1=O)C(=O)C(=O)Nc1ccccc1[N+](=O)[O-] (stereo unspecified) | > 100 | > 100 | > 100 | 
COc1ccc2cc3n(c2c1)CCc1cc(OC)c(OC)cc1-3 | > 100 | > 100 | > 100 | 
Cc1cccc(C(C)(C)C)c1NC(=O)C(=O)C(c1cnc2ccccc2n1)[N+](=O)[O-] (stereo unspecified) | > 100 | > 100 | > 100 | 
